The record followed here is US9320271B2, “Microbial composition” (Rohm and Haas Company, priority 2011, dated 2016).

SMILES strings stand for the structures. Several values for one entry are separate records, joined by “and”; a condition that tells them apart may be missing. Equal values may be shown once.

For test [1], the system named is Escherichia coli (E. coli—ATCC #10536). Put plainly: Synergy test: high resolution MBC microtiter plate assay, phosphate buffer containing 35% dipropylene glycol, 15 seconds contact. The format is cell-based. The note with it: E. coli 10536; for SI (Synergy Index): at Qa and Qb, less than one = synergy; for MBC of the component acting alone (QA / QB; Qa or Qb where the other component is 0): complete kill in 15 seconds. The text has this: The concentrations and ratios may also vary under different test conditions or with different test methods.
One measure of synergy is the industrially accepted method described by Kull, F. C.; Eisman, P. C.; Sylwestrowicz, H. D, and Mayer, R. L., in Applied Microbiology 9:538-541 (1961), using the ratio determined by the formula: […]=Synergy Index (“SI”) wherein; QA=concentration of compound A (first component) in percent, acting alone, which produced an end point (MBC of Compound A). Qa=concentration of compound A in percent, in the mixture, which produced an end point. QB=concentration of compound B (second component) in percent, acting alone, which, produced an end point (MBC of Compound B). Qb=concentration of compound B in percent, in the mixture, which produced an end point.
When the sum of Qa/QA and Qb/QB is greater than one, antagonism is indicated. […] The lower the SI, the greater is the synergy shown by that particular mixture. The minimum biocidal concentration (MBC) of a microbicide is the lowest concentration tested under a specific set of conditions that provides complete kill of the tested microorganisms.
Synergy tests were conducted using standard microliter plate assays with phosphate buffer containing 35% dipropylene glycol (DPG). In this method, a wide range of combinations of chemicals was tested by conducting high resolution MBC assays of Component (A) in the presence of various concentrations of Component (B). High resolution MBCs were determined by adding varying amounts of microbicide to one column of a microliter plate and doing subsequent […] dilutions using an automated liquid handling, system to obtain a series of closely spaced endpoints. The MBC plate was inoculated one column at a time with the test microorganism. An aliquot of the inoculated well was transferred at 15 seconds to a plate containing a neutralizing agent (D/E Neutralizing Broth), mixed and held for 5 minutes before being transferred to a growth plate containing trypticase soy broth (TSB). The TSB plate was incubated at 37° C. and read for the presence/absence of growth at 24 hours. The lowest level tested that provided complete kill (as evidenced by no growth in the microtitre plate) of the test organisms in 15 seconds is the minimum biocidal concentration (MBC).
The synergy of the combinations of the present invention was determined against a bacterium, Escherichia coli (E. coli—ATCC #10536), at a concentration of approximately 1×10^8 it bacteria per mL. This microorganism is representative of natural contaminants in many consumer and industrial applications.

For test [2] the test system is unchanged. Kind of test: Automated assessment of efficacy in surfactant base (2.85% sodium cocoyl glycinate and 1.85% sodium lauroamphoacetate, pH 10.0), 15 seconds exposure. To be noted: for No. of replicates showing growth (out of 4) / Δ OD 450 nm = OD450 (time = 16 hours) − OD450 (time zero), Mean / Δ OD 590 nm OD590 (time = 16 hours) − OD590 (time zero), Mean: alone, model surfactant solution; for MBC (minimum biocidal concentration): in 2.85% sodium cocoyl glycinate + 1.85% sodium lauroamphoacetate solution at pH 10, E. coli. In kind it is cell-based. The procedure: Test Methodology for Automated Assessment of Efficacy in Surfactant Base Microbiocidal Activity of Actives as Per the Invention in a Model Surfactant Medium Test Methodology for Automated Assessment of Efficacy in Surfactant Base In these examples, the efficacy of combinations of actives were tested in a surfactant cleansing formulation comprising 2.85% sodium cocoyl glycinate and 1.85% sodium lauroamphoacetate. This corresponds to a 50% in use dilution with water of a neat formulation containing 5.7% cocoyl glycinate and […] % sodium, lauroamphoacetate during hand washing. Solutions were prepared such that the concentrations of the surfactant components and test actives were 1.1× the final desired concentration in order to allow for dilution with the bacterial inoculum in the test. The solutions were manually adjusted to pH 10.0 by dropwise addition of sodium hydroxide solution, as measured with a pH meter at ambient temperature. The efficacy of the combinations of the present invention was determined against Escherichia coli (E. coli—ATCC #10536), at a concentration of approximately 1×10^8 bacteria per mL. Tests were conducted using standard microtiter plate assays using an automated liquid handling system. 270 μl of the surfactant test solution was pipetted into each well of the microtitre plate and 30 μl of the bacterial suspension was then added. Alter exactly 15 seconds of bacterial exposure, a 30 μl volume of bacterial cells was withdrawn and transferred to 270 μl of D/E quench solution. After 5 minutes in the D/E quench, the optical density (OD) was measured for each plate in turn at two specific wavelengths (450 nm and 590 nm). These provide a dual check of antimicrobial activity, as the OD450 reading is specific for the yellow colour of D/E quench when bacterial growth is observed, whereas OD590 is specific for the initial purple colour of the D/E quench which is retained if no bacterial growth is observed. After the time zero OD measurements, plates were then incubated at 37° C. overnight (16 hours) before repeating the OD measurements. Delta OD values were calculated by subtracting […]. Bacterial growth is observed as an increase in OD450 and a decrease in ΔOD590. To identify antibacterially efficacious systems (those preventing appreciable bacterial growth after incubation), the following threshold changes in OD readings have been adopted: if (1). OD450 increases by less than 0.2 absorbance unit on incubation and (2). OD590 decreases by less than 0.35 unit on incubation. Conversely, where OD450 increases by more than 0.2 AU and OD590 decreases by more than 0.35 unit after incubation, corresponding to a colour shift from purple to yellow, the test system allows bacterial growth and is not deemed efficacious. Four replicate measurements in the same plate have been made for each test system. The number of replicate wells showing either bacterial growth or no growth is also readily assessed by eye by following the colour change. Dose responses for individual components and binary mixtures of actives at a fixed concentration ratio were generated by sequential dilution of liquors with further surfactant solution to obtain a series of endpoints. […] In some selected cases, the combinations were also tested at the weight ratio 1:1.

With `CC(C)(C)c1ccc(O)c(O)c1` [4-tert-butylbenzene-1,2-diol], in test [1], the “SI (Synergy Index)” value worked out at 1.00; the “MBC of the component acting alone (QA / QB; Qa or Qb where the other component is 0)” value is 1.00 weight % and 1.0 weight %. For the same compound, in test [2] (0.125% w/v), the “No. of replicates showing growth (out of 4)” value is 4; the “Δ OD 450 nm = OD450 (time = 16 hours) − OD450 (time zero), Mean” value (shortened to “Δ OD 450 nm = OD450”) is on record as −1.63; the “Δ OD 590 nm OD590 (time = 16 hours) − OD590 (time zero), Mean” value (shortened to “Δ OD 590 nm OD590”) amounted to 0.22. In test [2] (0.2% w/v), the “No. of replicates showing growth (out of 4)” value is 4; the “Δ OD 450 nm = OD450” value is reported as −1.66; the “Δ OD 590 nm OD590” value is 0.17. Moreover, in test [2] ([…] w/v), the “No. of replicates showing growth (out of 4)” value amounted to 4; the “Δ OD 450 nm = OD450” value was −1.63; the “Δ OD 590 nm OD590” value stood at 0.20. In test [2], the “MBC (minimum biocidal concentration)” value is recorded as greater than 0.2 % w/v.

On to `Oc1cccc2c1CCCC2` [5,6,7,8-tetrahydronaphthalen-1-ol], for which, in test [1], the “SI (Synergy Index)” value worked out at 1.00 and the “MBC of the component acting alone (QA / QB; Qa or Qb where the other component is 0)” value stood at 0.6 weight %. In test [2] (0.1% w/v), the “No. of replicates showing growth (out of 4)” value is 4; the “Δ OD 450 nm = OD450” value is −0.57; the “Δ OD 590 nm OD590” value is 0.56. In addition, in test [2] (0.2% w/v), the “No. of replicates showing growth (out of 4)” value is given as 4; the “Δ OD 450 nm = OD450” value is given as −0.47; the “Δ OD 590 nm OD590” value turned out to be 0.65. In test [2] ([…] w/v), the “No. of replicates showing growth (out of 4)” value stood at 4; the “Δ OD 450 nm = OD450” value was −0.52; the “Δ OD 590 nm OD590” value amounted to 0.58. Besides, the “MBC (minimum biocidal concentration)” value in test [2] was greater than 0.2 % w/v.

On to `Oc1ccc2c(c1)CCCC2` [5,6,7,8-tetrahydronaphthalen-2-ol], for which, in test [1], the “SI (Synergy Index)” value turned out to be 1.00; the “MBC of the component acting alone (QA / QB; Qa or Qb where the other component is 0)” value is 0.8 weight % and 0.6 weight %. Further, in test [2] (0.1% w/v), the “No. of replicates showing growth (out of 4)” value is 4; the “Δ OD 450 nm = OD450” value is on record as −1.56; the “Δ OD 590 nm OD590” value is 0.32. Moreover, in test [2] (0.2% w/v), the “No. of replicates showing growth (out of 4)” value came to 4; the “Δ OD 450 nm = OD450” value is reported as −1.55; the “Δ OD 590 nm OD590” value worked out at 0.36. Also, in test [2] ([…] w/v), the “No. of replicates showing growth (out of 4)” value was determined as 4; the “Δ OD 450 nm = OD450” value is reported as −1.60; the “Δ OD 590 nm OD590” value is 0.31.

As to `C=C(C)[C@@H]1CC=C(CO)CC1` [(4S)-(4-(prop-1-en-2-yl)cyclohex-1-enyl)methanol], in test [1], the “SI (Synergy Index)” value was found to be 1.00; the “MBC of the component acting alone (QA / QB; Qa or Qb where the other component is 0)” value is 0.5 weight % and 0.3 weight % and 0.6 weight %. The “MBC (minimum biocidal concentration)” value in test [2] is 0.4 % w/v.
